The target of test [1] is T1, human sex Hormone Binding Globulin (SHBG) (Homo sapiens, UniProt P04278).
T1 construct: made in house; host or cells: transgenic mouse (purified from serum)
T1 sequence (P04278 30-402): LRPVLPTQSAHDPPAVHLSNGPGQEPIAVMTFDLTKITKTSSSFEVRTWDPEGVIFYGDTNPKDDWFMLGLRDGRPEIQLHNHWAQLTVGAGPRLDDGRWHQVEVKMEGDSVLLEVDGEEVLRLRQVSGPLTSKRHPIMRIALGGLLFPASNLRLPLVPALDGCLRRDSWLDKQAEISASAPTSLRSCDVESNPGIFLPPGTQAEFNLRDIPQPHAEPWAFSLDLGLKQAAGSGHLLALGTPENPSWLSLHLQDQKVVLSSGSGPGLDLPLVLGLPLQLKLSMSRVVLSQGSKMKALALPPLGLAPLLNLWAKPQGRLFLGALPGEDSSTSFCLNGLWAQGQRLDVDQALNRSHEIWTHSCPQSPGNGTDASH
In words: Competitive steroid-binding assay, SHBG. The conditions noted are these: [3H]DHT or [3H]estradiol as labeled ligands. Here is the method: Human SHBG was treated for 30 min at room temperature with a dextran-coated charcoal (DCC) suspension in phosphate buffered saline (PBS) to remove any steroid ligand. After centrifugation (2,000×g for 10 min) to sediment the DCC, the supernatant containing the human SHBG was diluted in PBS to a concentration of 1 nM based on its steroid binding capacity.
The average amounts of [^3H]labeled ligands bound to SHBG at each concentration of competitor (B) were expressed as a percentage of the average amounts of [^3H]labeled ligands bound to SHBG in the absence of competitor (B0), and were plotted against the concentration of competitor in each assay tube.

Test [2] has as its system ovariectomized adult rats. Description: Vaginal cornification bioassay in ovariectomized rats. The conditions noted are these: 0.05 mg/kg/day. The class given is in vivo, rat. The source says:
Uterine weight increase in the rat is more commonly used as a measure of estrogenicity. […] In the early 1920s it was discovered that follicular fluid from the pig ovary contained a factor(s) that caused cornification/keratinization of the vaginal epithelium in the rat (Allen and Doisy, 1923, JAMA, 81,819-821; Allen and Doisy, 1924, Am. J. Physiol., 69, 577-588). The so-called vaginal cornification response in rats subsequently provided a bioassay for testing estrogenicity. Vaginal epithelial cornification/keratinization in ovariectomized rats can be produced only by compounds considered to be true estrogens (Jones et al, 1973, Fert. Steril. 24, 284-291). […] Adult intact female CD rats were ovariectomized to induce estrogen deficiency. […] Castrate vaginal smears are indicative that complete ovanectomy was achieved. Treatment commenced following completion of the 7 days of smearing (day 0=first day of dosing). Animals were dosed, once daily for 7 consecutive days. Daily vaginal lavages continued to be obtained for 7 days after dosing was initiated in order to detect vaginal cornification, as an indication of an estrogenic response. A drop of vaginal washings was placed on a glass slide and examined by light microscopy to detect the presence or absence of cornified epithelial cells. Vaginal lavages were obtained prior to dosing on days 0-6 and prior to necropsy on day 7. The vaginal cornification bioassay was performed in order to determine the estrogenic profile of E4 when given subcutaneously (sc) to ovariectomized adult rats. E2 was used as a positive control. […] The vaginal cornification bioassay was performed in order to determine the estrogenic profile of E4 when given orally (po) to ovariectomized adult rats. EE was used as a positive control. […] A vaginal estrogenic response occurred in all rats (8/8) given 50 μg/kg/day EE po by day 7 (Table 2).

We go through 4 compounds from patent US7723320B2, “Use of estrogen compounds to increase libido in women” (Pantarhei Bioscience B.V., priority 2001, dated 2010).

In the case of `C[C@]12CCC(=O)C[C@@H]1CC[C@@H]1[C@@H]2CC[C@]2(C)[C@@H](O)CC[C@@H]12` [5α-dihydrotestosterone], in test [1], the “relative binding affinity for human SHBG” value is “in this order, show an increased relative binding affinity”.
Regarding `C[C@]12CC[C@@H]3c4ccc(O)cc4CC[C@H]3[C@@H]1CC[C@@H]2O` [E2, 17β-estradiol, reference compound], the “Number of Rats Exhibiting Estrogenic Response/Number of Rats Treated” value in test [2] (sc, Day 0) is reported as 0/8; in test [2] (sc, Day 1), 0/8; in test [2] (sc, Day 2), 8/8; in test [2] (sc, Day 3) it was 8/8; in test [2] (sc, Day 4), 8/8; in test [2] (sc, Day 5) it was 8/8. The “Number of Rats Exhibiting Estrogenic Response/Number of Rats Treated” value is on record as 8/8 in test [2] (sc, Day 6) and 8/8 in test [2] (sc, Day 7).
`C#C[C@]1(O)CC[C@H]2[C@@H]3CCc4cc(O)ccc4[C@H]3CC[C@@]21C` [EE, 17α-ethinylestradiol, reference compound]: the “Number of Rats Exhibiting Estrogenic Response/Number of Rats Treated” value in test [2] (po, Day 0) is recorded as 0/8; in test [2] (po, Day 1), 1/8; in test [2] (po, Day 2), 3/8; in test [2] (po, Day 3), 8/8; in test [2] (po, Day 4), 8/8; in test [2] (po, Day 5), 8/8. Besides, the “Number of Rats Exhibiting Estrogenic Response/Number of Rats Treated” value in test [2] (po, Day 6) is recorded as 8/8; in test [2] (po, Day 7) it was 8/8.
In the case of `C[C@]12CC[C@H]3[C@@H](CCC4=CC(=O)CC[C@@]43C)[C@@H]1CC[C@@H]2O` [testosterone], the “relative binding affinity for human SHBG” value in test [1] is recorded as “in this order, show an increased relative binding affinity”.
